Results published in PubChem BioAssay AID1963850 (Molecular Pharmacology Branch, DTP, NCI, 2024).

Test system: 192522-019-R-J2-PDC complex tumor spheroid viability
Assay: Anticancer human tumor 192522-019-R-J2-PDC patient-derived colon adenocarcinoma cell line growth inhibition [POLQ]
Details: for IC50: curve of first compound; for viability, T/C: stronger effect = lower value
Summary of the method: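 Patient-derived tumour cells were co-cultured with HUVEC and mesenchymal stem cells as multicellular spheroids at 37 °C. They were treated with POLQ inhibitors (novobiocin, ART-558, RP6685) alone or combined with other agents. Top concentrations were at or near clinical Cmax (otherwise 10 microM; SN-38 at 1 microM), decreasing in half-log steps.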

[1] = second compound 0.0316 µM, first compound 0.00316 µM
[2] = second compound 0.0316 µM, first compound 0.01 µM
[3] = second compound 0.0316 µM, first compound 0.0316 µM
[4] = second compound 0.0316 µM, first compound 0.1 µM
[5] = second compound 0.0316 µM, first compound 0.316 µM
[6] = second compound 0.0316 µM, first compound 1 µM
[7] = second compound 0.1 µM, first compound 0.00316 µM
[8] = second compound 0.1 µM, first compound 0.01 µM
[9] = second compound 0.1 µM, first compound 0.0316 µM
[10] = second compound 0.1 µM, first compound 0.1 µM
[11] = second compound 0.1 µM, first compound 0.316 µM
[12] = second compound 0.1 µM, first compound 1 µM
[13] = second compound 0.316 µM, first compound 0.00316 µM
[14] = second compound 0.316 µM, first compound 0.01 µM
[15] = second compound 0.316 µM, first compound 0.0316 µM
[16] = second compound 0.316 µM, first compound 0.1 µM
[17] = second compound 0.316 µM, first compound 0.316 µM
[18] = second compound 0.316 µM, first compound 1 µM
[19] = second compound 1 µM, first compound 0.00316 µM
[20] = second compound 1 µM, first compound 0.01 µM
[21] = second compound 1 µM, first compound 0.0316 µM
[22] = second compound 1 µM, first compound 0.1 µM
[23] = second compound 1 µM, first compound 0.316 µM
[24] = second compound 1 µM, first compound 1 µM
[25] = second compound 3.16 µM, first compound 0.00316 µM
[26] = second compound 3.16 µM, first compound 0.01 µM
[27] = second compound 3.16 µM, first compound 0.0316 µM
[28] = second compound 3.16 µM, first compound 0.1 µM
[29] = second compound 3.16 µM, first compound 0.316 µM
[30] = second compound 3.16 µM, first compound 1 µM
[31] = second compound 10 µM, first compound 0.00316 µM
[32] = second compound 10 µM, first compound 0.01 µM
[33] = second compound 10 µM, first compound 0.0316 µM
[34] = second compound 10 µM, first compound 0.1 µM
[35] = second compound 10 µM, first compound 0.316 µM
[36] = second compound 10 µM, first compound 1 µM
[37] = second compound 0.0316 µM, first compound 3.16 µM
[38] = second compound 0.0316 µM, first compound 10 µM
[39] = second compound 0.1 µM, first compound 3.16 µM
[40] = second compound 0.1 µM, first compound 10 µM
[41] = second compound 0.316 µM, first compound 3.16 µM
[42] = second compound 0.316 µM, first compound 10 µM
[43] = second compound 1 µM, first compound 3.16 µM
[44] = second compound 1 µM, first compound 10 µM
[45] = second compound 3.16 µM, first compound 3.16 µM
[46] = second compound 3.16 µM, first compound 10 µM
[47] = second compound 10 µM, first compound 3.16 µM
[48] = second compound 10 µM, first compound 10 µM
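Also: spheroids exposed to drugs for seven days before reading.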
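For viability, T/C in this document: 100% = DMSO vehicle control viability in luminescence.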

In the case of `C=CCn1c(=O)c2cnc(Nc3ccc(N4CCN(C)CC4)cc3)nc2n1-c1cccc(C(C)(C)O)n1` + Cc1cccc(N(C)C(=O)C2C(O)CCN2c2nc(C)cc(C(F)(F)F)c2C#N)c1, the IC50 (second compound 0.0316 µM) is reported as 796 nM, the IC50 (second compound 0.1 µM) is reported as 812 nM and the IC50 (second compound 0.316 µM) is reported as 893 nM. The IC50 (second compound 1 µM) was over 1000 nM, the IC50 (second compound 3.16 µM) was over 1000 nM and the IC50 (second compound 10 µM) was 916 nM. For the same compound, the viability, T/C [1] was 98.9%, the viability, T/C [2] was 106% and the viability, T/C [3] was 102%. It also gave a viability, T/C [4] of 108%, a viability, T/C [5] of 92.6% and a viability, T/C [6] of 39.5%. The viability, T/C [7] was 99.7%, the viability, T/C [8] was 99.3% and the viability, T/C [9] was 102%. The viability, T/C [10] was 106%, the viability, T/C [11] was 90% and the viability, T/C [12] was 40.4%. The viability, T/C [13] was 111%, the viability, T/C [14] was 110% and the viability, T/C [15] was 105%. The viability, T/C [16] was 110%, the viability, T/C [17] was 98.6% and the viability, T/C [18] was 44.4%. For the same compound, the viability, T/C [19] was 112%, the viability, T/C [20] was 95.2% and the viability, T/C [21] was 107%. The viability, T/C [22] was 109%, the viability, T/C [23] was 105% and the viability, T/C [24] was 50.4%. For the same compound, the viability, T/C [25] was 116%, the viability, T/C [26] was 110% and the viability, T/C [27] was 109%. For the same compound, the viability, T/C [28] was 106%, the viability, T/C [29] was 89% and the viability, T/C [30] was 56.9%. The viability, T/C [31] was 109%, the viability, T/C [32] was 115% and the viability, T/C [33] was 119%. The viability, T/C [34] was 105%, the viability, T/C [35] was 102% and the viability, T/C [36] was 45.6%.
Compound `CCc1c2c(nc3ccc(O)cc13)-c1cc3c(c(=O)n1C2)COC(=O)[C@]3(O)CC` + Cc1cccc(N(C)C(=O)C2C(O)CCN2c2nc(C)cc(C(F)(F)F)c2C#N)c1 has an IC50 (second compound 0.0316 µM) of 131 nM, an IC50 (second compound 0.1 µM) of 136 nM and an IC50 (second compound 0.316 µM) of 158 nM. The IC50 (second compound 1 µM) was 229 nM, the IC50 (second compound 3.16 µM) was 234 nM and the IC50 (second compound 10 µM) was 112 nM. It also gave a viability, T/C [1] of 95.4%, a viability, T/C [2] of 63.6% and a viability, T/C [3] of 72.2%. For the same compound, the viability, T/C [4] was 53.6%, the viability, T/C [5] was 40.3% and the viability, T/C [6] was 31.1%. For the same compound, the viability, T/C [7] was 91.5%, the viability, T/C [8] was 66.2% and the viability, T/C [9] was 75.8%. It also gave a viability, T/C [10] of 52.3%, a viability, T/C [11] of 36.7% and a viability, T/C [12] of 33.5%. It also gave a viability, T/C [13] of 104%, a viability, T/C [14] of 72.8% and a viability, T/C [15] of 70.5%. The viability, T/C [16] was 60.7%, the viability, T/C [17] was 38.8% and the viability, T/C [18] was 33.9%. For the same compound, the viability, T/C [19] was 95.1%, the viability, T/C [20] was 78.1% and the viability, T/C [21] was 71.9%. For the same compound, the viability, T/C [22] was 61%, the viability, T/C [23] was 44.5% and the viability, T/C [24] was 35%. The viability, T/C [25] was 101%, the viability, T/C [26] was 82.6% and the viability, T/C [27] was 79.1%. The viability, T/C [28] was 57.3%, the viability, T/C [29] was 45.8% and the viability, T/C [30] was 36.4%. The viability, T/C [31] was 97.6%, the viability, T/C [32] was 69.4% and the viability, T/C [33] was 68.8%. It also gave a viability, T/C [34] of 49.4%, a viability, T/C [35] of 42.6% and a viability, T/C [36] of 36.5%.
`CNCc1ccc(-c2[nH]c3cc(F)cc4c3c2CCNC4=O)cc1` + Cc1cccc(N(C)C(=O)C2C(O)CCN2c2nc(C)cc(C(F)(F)F)c2C#N)c1 showed an IC50 (second compound 0.0316 µM) of over 10000 nM, an IC50 (second compound 0.1 µM) of over 10000 nM and an IC50 (second compound 0.316 µM) of over 10000 nM. It also gave an IC50 (second compound 1 µM) of over 10000 nM, an IC50 (second compound 3.16 µM) of over 10000 nM and an IC50 (second compound 10 µM) of over 10000 nM. It also gave a viability, T/C [3] of 109%, a viability, T/C [4] of 96.2% and a viability, T/C [5] of 96.8%. The viability, T/C [6] was 100%, the viability, T/C [37] was 121% and the viability, T/C [38] was 91.2%. The viability, T/C [9] was 103%, the viability, T/C [10] was 104% and the viability, T/C [11] was 112%. For the same compound, the viability, T/C [12] was 108%, the viability, T/C [39] was 101% and the viability, T/C [40] was 111%. The viability, T/C [15] was 101%, the viability, T/C [16] was 113% and the viability, T/C [17] was 111%. The viability, T/C [18] was 103%, the viability, T/C [41] was 106% and the viability, T/C [42] was 102%. It also gave a viability, T/C [21] of 108%, a viability, T/C [22] of 115% and a viability, T/C [23] of 103%. The viability, T/C [24] was 112%, the viability, T/C [43] was 104% and the viability, T/C [44] was 110%. For the same compound, the viability, T/C [27] was 113%, the viability, T/C [28] was 113% and the viability, T/C [29] was 102%. It also gave a viability, T/C [30] of 102%, a viability, T/C [45] of 122% and a viability, T/C [46] of 110%. It also gave a viability, T/C [33] of 107%, a viability, T/C [34] of 106% and a viability, T/C [35] of 112%. The viability, T/C [36] was 107%, the viability, T/C [47] was 113% and the viability, T/C [48] was 108%.
Compound `Nc1ccn(C2OC(CO)C(O)C2(F)F)c(=O)n1` (stereo not drawn) + Cc1cccc(N(C)C(=O)C2C(O)CCN2c2nc(C)cc(C(F)(F)F)c2C#N)c1 has an IC50 (second compound 0.0316 µM) of over 10000 nM, an IC50 (second compound 0.1 µM) of over 10000 nM and an IC50 (second compound 0.316 µM) of over 10000 nM. It also gave an IC50 (second compound 1 µM) of over 10000 nM, an IC50 (second compound 3.16 µM) of over 10000 nM and an IC50 (second compound 10 µM) of over 10000 nM. For the same compound, the viability, T/C [3] was 95.9%, the viability, T/C [4] was 81.6% and the viability, T/C [5] was 81.8%. It also gave a viability, T/C [6] of 76.2%, a viability, T/C [37] of 70.3% and a viability, T/C [38] of 57.2%. It also gave a viability, T/C [9] of 95.9%, a viability, T/C [10] of 95.7% and a viability, T/C [11] of 80.6%. The viability, T/C [12] was 76.5%, the viability, T/C [39] was 66.6% and the viability, T/C [40] was 55.5%. It also gave a viability, T/C [15] of 108%, a viability, T/C [16] of 95.3% and a viability, T/C [17] of 83.2%. The viability, T/C [18] was 76.3%, the viability, T/C [41] was 65.8% and the viability, T/C [42] was 57.6%. It also gave a viability, T/C [21] of 104%, a viability, T/C [22] of 90% and a viability, T/C [23] of 80.6%. The viability, T/C [24] was 79.9%, the viability, T/C [43] was 72.3% and the viability, T/C [44] was 56.5%. For the same compound, the viability, T/C [27] was 105%, the viability, T/C [28] was 98.6% and the viability, T/C [29] was 88.6%. The viability, T/C [30] was 74%, the viability, T/C [45] was 77% and the viability, T/C [46] was 59.7%. For the same compound, the viability, T/C [33] was 108%, the viability, T/C [34] was 83.4% and the viability, T/C [35] was 80.5%. The viability, T/C [36] was 74.3%, the viability, T/C [47] was 76.5% and the viability, T/C [48] was 62.3%.
